Reference: a melting point compilation (Tetko et al.; mined from patent text by program, amines drawn as free bases though some values may be those of a salt)

| melting point [°C] | Compound |
| --- | --- |
| 121 | CCOC(=O)C1=C(N)N=C(OCC)C(C(=O)OCC)C1c1cccc(Cl)c1 (centres undefined) |
| 180 to 182 | O=c1cnc(-c2cc(Br)cc(-c3ccsc3)c2)nn1CC(F)(F)F |
| 126 to 127 | Cc1ccc(Oc2cnc(C#N)c(C#N)n2)cc1 |
| 142 to 143 | CC(O)C(NCc1ccc([N+](=O)[O-])cc1)C(=O)O (centres undefined) |
| 170 | COc1ccccc1-c1nc(N)ncc1-c1ccc(=O)n(C(C)C)n1 |
| 196 to 198 | O=C1Nc2cc(C(F)(F)F)ccc2C1=O |
| 75 to 78 | COC=Nc1c(C#N)c(C)nn1-c1c(Cl)cc(C(F)(F)F)cc1Cl |
| 166 to 169 | O=C(Nc1c(Cl)cccc1Cl)C1CC1 |
| 138 to 139 | CCCc1cn(CC(=O)O)nc1OCCCc1cn(-c2ccc(C(F)(F)F)cn2)nc1CCC |
| 80 to 81 | COc1ccc(CSc2cnccc2C#N)cc1 |
| 97 to 98 | COC(=O)C1=C(C)N(CCCc2ccccc2)C(C)=C(C(=O)OC)C1c1ccc(OC)c(OC)c1 |
| 191 to 194 | O=C1C2CC(c3ccc([N+](=O)[O-])cc3)(C2)C(=O)N1CC1CCCCC1 |
| 139 to 141 | Fc1ccc2c(CCCN3CCN(c4n[nH]c5ccccc45)CC3)noc2c1 |
| 135 to 140 | CCCn1c(=O)c2c(n(Cc3ccccc3)c1=O)NN=C(NC(C)=O)S2 |
| 173 to 175 | OC(c1c(Br)ccc2c1OCO2)c1cccc2cnccc12 (centres undefined) |
| 165 to 167 | COC(=O)c1ccc(-c2nc3c(OC)cccc3s2)cc1 |
| 91 to 92 | Cn1c(Cl)c([N+](=O)[O-])c(=O)n(C)c1=O |
| 166 | CCCc1c(CSc2nnc(NC(=O)CCC(=O)OCC)s2)ccc(C(C)=O)c1O |
| 71 to 71.5 | Cc1cccc2c1CCN=C2c1ccc(F)cc1 |
| 182 to 183 | CC(C)NC(=O)c1c(NC(=O)c2cc(C(F)(F)F)nn2-c2ncccc2Cl)ccc2ncccc12 |

| melting point [°C] | Compound |
| --- | --- |
| 150 to 152 | CCCCCCCCC(=O)Nc1ccn(C2OC(CO)C(O)C2O)c(=O)n1 (centres undefined) |
| 169 to 171 | Cn1c(=O)c(-c2c(Cl)cccc2Cl)cc2cnc(Nc3ccc(CCCC(=O)O)cc3)nc21 |
| > 230 | Cc1cc(Br)cc(C)c1NC(=O)Nc1ccc(-n2nc(C(F)(F)F)cc2C(F)(F)F)cc1 |
| 140 to 142 | Cc1cccc(Nc2cc(Cl)nc(S(C)(=O)=O)n2)c1C |
| 88 to 93 | Nc1ccc(OC2=C(Oc3ccc(N)cc3C(F)(F)F)C(F)(F)C(F)(F)C2(F)F)c(C(F)(F)F)c1 |
| 43.7 | N#CC=Cc1ccc(-c2ccccc2)cc1 |
| 178 to 180 | CN(C)c1cccc(NC(=O)c2cccc(S(=O)(=O)N3CCCCCC3)c2)c1 |
| 230 to 232 | Cc1ccc(C(=O)Nc2ccccc2C#N)c([N+](=O)[O-])c1 |
| 236 to 238 | O=C(O)c1ccc(S(=O)(=O)Oc2ccc(-c3ccc(-c4c(Cc5ccccc5)sc5ccccc45)cc3)cc2)cc1O |
| 235 to 236 | O=C1Nc2ccccc2C12COc1cc3c(cc12)OCCCO3 (centres undefined) |
| 55 to 56 | COc1ccc(-c2oncc2CCCO)cc1OC |
| 121 to 122 | COc1cc(OC)nc(-n2c(OC)nc3ccccc32)n1 |
| 140 | COc1ccc(CCN2CCC(C3c4ccn(C)c4C=Cn4ncnc43)CC2)cc1 (centres undefined) |
| 218 | CC(C)(C)OC(=O)N1CCN(c2cccc(N)c2)CC1 |
| 145 to 146 | CCn1cc(C=O)c(-c2ccc([N+](=O)[O-])o2)n1 |
| 258 | Nc1ccc(-c2noc(-c3cnc4ccc(-c5ccc(C(F)(F)F)cc5)cn34)n2)cn1 |
| 130 to 131 | Cc1nc(-c2ccccc2)nc(-c2cccc([N+](=O)[O-])c2)c1C(C)N1CCN(C)CC1 (centres undefined) |
| 114 to 115 | CCCCOc1c(OC)cc(C(=O)O)cc1[N+](=O)[O-] |
| 166 to 170 | CCOC(=O)c1cc(=O)c2c3c(ccc2o1)C(=O)CC(C(=O)OC)=N3 |
